pEC50: −log10 of the molar value.
Assays:
[1] = system: Measles morbillivirus; test: Antiviral activity against Measles virus Alaska assessed as inhibition of viral-induced cytopathicity; type: functional, organism-based
[2] = Cytotoxicity against Vero cells by MTT assay; type: cell-based; details: chlorocebus sabaeus
[3] = Cytotoxicity against Vero cells by Trypan blue exclusion assay; type: cell-based; details: chlorocebus sabaeus
[4] = system: Measles morbillivirus; test: Antiviral activity against Measles virus Alaska assessed as virus titer reduction; type: functional
[5] = Ratio of CC50 for Vero cells to IC50 for Measles virus Alaska; type: functional

SMILES	pEC50 [1]	CC50 [2] [µM]	CC50 [3] [µM]	Activity [4] [µM]	Ratio CC50/IC50 [5]
Cn1nc(C(F)(F)F)cc1COc1ccc(S(=O)(=O)N2CCCC2)cc1	< 4.12	> 300			
O=C(Nc1ccc(S(=O)(=O)N2CCCC2)cc1)c1nccn1-c1ccccc1C(F)(F)F	4.19	> 300			
O=C(Nc1ccc(S(=O)(=O)N2CCCC2)cc1)c1ccc(C(F)(F)F)cc1	4.32	> 300			
Cc1cc(C(=O)Nc2ccc(S(=O)(=O)N3CCCC3)cc2)n(C)n1	< 4.12	> 300			
O=C(Nc1ccc(S(=O)(=O)N2CCCC2)cc1)c1cc(C(F)(F)F)ccc1F	≤ 4.12	76			
Cn1nc(C(F)(F)F)cc1C(=O)Nc1ccc(S(=O)(=O)N2CCOCC2)cc1	4.37	> 300			
Cn1nc(C(F)(F)F)cc1C(=O)Nc1ccc(S(=O)(=O)N2CCCC2)cc1N	≤ 4.12	> 300			
O=C(Nc1ccc(S(=O)(=O)N2CCCC2)cc1)c1cccc(C(F)(F)F)c1	< 4.12	> 300			
O=C(Nc1ccc(S(=O)(=O)N2CCCC2)cc1)c1ccc(CCl)cc1		11			
Cn1nc(C(F)(F)F)cc1C(=O)Nc1ccc(S(=O)(=O)N2CCC[C@H]2C(=O)O)cc1	4.64	> 300			
O=C(Nc1ccc(S(=O)(=O)N2CCCC2)cc1)c1cccs1	< 4.12	> 300			
O=C(Nc1ccc(S(=O)(=O)N2CCCC2)cc1)c1ccc(Br)cc1		59			
Cn1nc(C(F)(F)F)cc1CNc1ccc(S(=O)(=O)N2CCCC2)cc1	< 4.12	> 300			
O=C(Nc1ccc(S(=O)(=O)N2CCCC2)cc1)c1ccccc1C(F)(F)F	< 4.12	> 300			
Cn1nc(C(F)(F)F)cc1C(O)Cc1ccc(S(=O)(=O)N2CCCC2)cc1 (stereo unspecified)	4.39	> 300			
Cn1nc(C(F)(F)F)cc1C(=O)Nc1ccc(S(=O)(=O)N2CCCCC2)cc1	> 5.64	> 300	199	0.012	16500
O=C(Nc1ccc(S(=O)(=O)N2CCCC2)cc1)c1cc(C(F)(F)F)nn1Cc1ccccc1	< 4.12	37			

SMILES	pEC50 [1]	CC50 [2] [µM]	CC50 [3] [µM]	Activity [4] [µM]	Ratio CC50/IC50 [5]
Cn1nc(C(F)(F)F)cc1C(=O)Nc1ccc(S(=O)(=O)N2CCNCC2)cc1	4.55	126			
O=C(Nc1ccc(S(=O)(=O)N2CCCC2)cc1)c1ccc([N+](=O)[O-])cc1Cl	< 4.12	> 300			
O=C(Nc1ccc(S(=O)(=O)N2CCCC2)cc1)c1ccco1	< 4.12	> 300			
Cc1nc(C(F)(F)F)ccc1C(=O)Nc1ccc(S(=O)(=O)N2CCCC2)cc1	< 4.12	> 300			
Nc1ccc(C(=O)Nc2ccc(S(=O)(=O)N3CCCC3)cc2)c(Cl)c1	< 4.12	> 300			
Cn1nc(C(F)(F)F)cc1C(=O)Nc1ccc(S(=O)(=O)N2CCCC2)cc1NC(=O)c1cc(C(F)(F)F)nn1C		13			
Cn1nc(C(F)(F)F)cc1C(=O)Nc1ccc(S(=O)(=O)N2CCCCC2C(=O)O)cc1 (stereo unspecified)	< 4.12	> 300			
Cn1nc(C(F)(F)F)cc1C(=O)Nc1ccc(S(=O)(=O)n2ccc3ccccc32)cc1		13			
O=C(Nc1ccc(S(=O)(=O)N2CCCC2)cc1)c1ccc(F)cc1	< 4.12	> 300			
Cn1nc(C(F)(F)F)cc1C(=O)Nc1ccc(S(=O)(=O)N2CCCC2)cc1OC(=O)c1cc(C(F)(F)F)nn1C		14			
Cn1nc(C(F)(F)F)cc1C(=O)Cc1ccc(S(=O)(=O)N2CCCC2)cc1	4.81	> 300			
Cn1nc(C(F)(F)F)cc1C(=O)Nc1ccc(S(=O)(=O)N2CCC[C@H]2C(=O)OCc2ccccc2)cc1	4.85	100			
O=C(Nc1ccc(S(=O)(=O)N2CCCC2)cc1)c1nc2ccccc2s1	< 4.12	> 300			
Cn1nc(C(F)(F)F)cc1C(=O)Nc1ccc(S(=O)(=O)N2CCCC2)cc1O	< 4.12	288			
Cn1nc(C(C)(C)C)cc1C(=O)Nc1ccc(S(=O)(=O)N2CCCC2)cc1	4.60	140			
COc1ccc(Br)c(C(=O)Nc2ccc(S(=O)(=O)N3CCCC3)cc2)c1	< 4.12	> 300			
O=C(Nc1ccc(S(=O)(=O)N2CCCC2)cc1)c1ccc(C(F)(F)F)cc1[N+](=O)[O-]	< 4.12	> 300			
